# Tests used:
# tyrosinase = settings: cited from earlier work; for type of tyrosinase inhibition (Lineweaver Burk diagram): Yagi et al. (1987)
# [1] = system: oxygen radical damage of β-phycoerythrin (β-PE) indicator protein; assay: Fast and slow Oxygen Radical Absorption Capacity (ORAC); type: biochemical; settings: for slow antioxidant activity, comparison in words: slow ORAC (50% of β-phycoerythrin survives)
# Text: Ascorbic acid, free phenolic compounds and thiol compounds are fast acting antioxidants. The slow antioxidant activity is a measure of the net protection area under the quenching curve of β-phycoerythrin in the presence of an antioxidant, which inhibits free radical propagation to the extent that 50% of β-phycoerythrin survives. Flavonoids, carotenoids and polyphenols are slow acting antioxidants. Aloeresin A (purity 76.0%), Aloesin (95.2%), green tea extract and grape seed extract, respectively were dissolved in deionized water (5% (W/V) solution) and tested directly using the experiment procedures described by Cao et al. (1994) Free Radic. Biol. Med. 16:135-137 and Prior and Cao (1999) Proc. Soc. Exp. Biol. Med. 220:255-261.
# [2] = system: oxygen radical damage of β-phycoerythrin (β-PE) indicator protein; assay: ORAC of a meta-berry fruit drink product with added aloeresin A; type: biochemical; settings: aloeresin A at a concentration of 5%; FIG. 7
# Procedure: A fruit drink product obtained from Oasis Wellness Network was determined, using the methods described in Example 3, to have an ORAC value of 3,129/oz. Aloeresin A, containing 76.0% aloeresin A was added to 40 mL of the drink (lot #0612, exp. […] These samples were then tested for whole ORAC value relative to the product in the absence of aloeresin A. using the experiment procedures illustrated described by Cao et al. (1994) Free Radic. Biol. Med. 16:135-137 and Prior and Cao (1999) Proc. Soc. Exp. Biol. Med. 220:255-261).
# [3] = system: oxygen radical damage of β-phycoerythrin (β-PE) indicator protein; assay: Oxygen Radical Absorption Capacity (ORAC) assay, whole ORAC; type: biochemical; settings: FIG. 4
# Text: The Oxygen Radical Absorption Capacity (ORAC) assay is a method for measuring total serum antioxidant activity. (Cao et al. (1993) Free Rad. Biol. Med. 14:303-311). It can be used to quantitatively measure the total antioxidant capacity, as well as, qualitatively measure the levels of fast versus slow acting antioxidants in a blood serum sample. The assay utilizes the free radical sensitive fluorescent indicator protein β-phycoerythrin (β-PE) to monitor the effectiveness of various serum antioxidants in protecting β-PE from becoming damaged by free radicals. Assay results are quantitated by allowing the reaction to reach completion and then integrating the area under the kinetic curve relative to a blank reaction containing no antioxidant. The area under the curve is proportional to the concentration of all the antioxidants present in the sample. (DeLang and Glazer (1989) Analyt. Biochem. 177:300-306).
# The chromones, Aloesin and Aloeresin A, were tested for Oxygen Radical Absorption Capacity (ORAC) relative to green tea extract which contains more than 50% total catechins and more than 25% epigallocatechingallate (EGCG) and grape seed extract which contains more than 95% total phenols. The ORAC assay measures the time-dependent decrease in the fluorescence of β-phycoerythrin (β-PE) indicator protein, resulting from oxygen radical damage. This assay provides a quantitative measure of the total antioxidant capacity to protect the free radical sensitive β-phycoerythrin. Each reaction was calibrated using the known standard Trolox, a water soluble vitamin E analogue. The ORAC value refers to the net protection area under the quenching curve of β-phycoerythrin in the presence of an antioxidant. The results of the assay are reported on the basis of 1 ORAC unit equals 1 μM of Trolox. Aloeresin A (purity 76.0%), aloesin (95.2%), green tea extract and grape seed extract were dissolved in deionized water (5% solution W/V) and tested directly using the experimental procedures described in Cao et al. (1994) Free Radic. Biol. Med. 16:135-137 and Prior and Cao (1999) Proc. Soc. […]
# [4] = system: spontaneous lipid peroxidation reaction; assay: Lipid Peroxidation Inhibition Capacity (LPIC) assay, MDA by thiobarbituric acid reaction; type: biochemical; settings: for inhibition of lipid peroxidation: concentration 5 mg/mL in phosphate-saline buffer
# Text: The Lipid Peroxidation Inhibition Capacity (LPIC) assay is a method for measuring the ability of a sample to inhibit the initiation and propagation of a spontaneous lipid peroxidation reaction. Lipid peroxidation represents the major mechanism of lipid destruction occurring in an organism. This reaction is also an important source of reactive oxygen species. In part, lipid peroxidation is controlled in vivo by:
# Lipid Peroxidation Inhibition Capacity (LPIC) is a measure of the anti-oxidative ability of a sample to inhibit the initiation and propagation of a spontaneous lipid peroxidation reaction. Malonyldialdehyde (MDA) is one of the major by-products of lipid peroxidation and is commonly used as a means of measuring the extent of lipid peroxidation. MDA concentrations were measured using the thiobarbituric acid reaction. Aloeresin A (purity 76.0%), vitamin C and cc-tocopherol were dissolved in a phosphate-saline buffer at four different concentrations (5 mg/mL, 10 mg/mL, 25 mg/mL and 50 mg/mL) and then tested directly using the experiment procedures described by Stocks et al. (1974) Clinical Sci. Mol. 47:215-222 and Yu and Lee, U.S. Pat. No. 5,939,395.
structure (smiles),measurement,setting,value
"COc1cc(/C=C/C(=O)O[C@@H]2[C@@H](O)[C@H](O)[C@@H](CO)O[C@H]2c2c(O)cc(C)c3c(=O)cc(CC(C)=O)oc23)ccc1O [2″-feruloylaloesin, 2″-O-feruloylaloesin, reference compound]",type of tyrosinase inhibition (Lineweaver Burk diagram),tyrosinase,non-competitive inhibitor
CC(=O)Cc1cc(=O)c2c(C)cc(O)c([C@@H]3O[C@H](CO)[C@@H](O)[C@H](O)[C@H]3OC(=O)/C=C/c3ccc(O)cc3)c2o1 [aloeresin A],fast antioxidant potency relative to the other three compositions,"[1]; fast ORAC (95% of β-phycoerythrin survives), 5% (W/V) solution, FIG. 5",four times more potent as a fast antioxidant
same,"slow antioxidant activity, comparison in words","[1]; 5% (W/V) solution, FIG. 5",superior antioxidant relative to grape seed and green tea extracts
same,increase of ORAC value of a multiple berry fruit drink,[2],31.3%
same,whole ORAC value higher than grape seed extract,"[3]; 5% (W/V) solution, difference to grape seed extract",299
same,whole ORAC value higher than green tea extract,"[3]; 5% (W/V) solution, difference to green tea extract",33
same,inhibition of lipid peroxidation,[4],30.7%
same,"lipid peroxidation inhibition capacity (LPIC), comparison in words","[4]; concentrations of 10 mg/mL to 50 mg/mL, vs α-tocopherol and vitamin C, FIG. 6",stronger antioxidant than either α-tocopherol or vitamin C
CC(=O)Cc1cc(=O)c2c(C)cc(O)c([C@@H]3O[C@H](CO)[C@@H](O)[C@H](O)[C@H]3O)c2o1 [aloesin],more active than grape seed extract at 50% ORAC conditions,"[1]; 50% ORAC conditions, relative to grape seed extract",more than six times more active
same,more active than green tea extract at 50% ORAC conditions,"[1]; 50% ORAC conditions, relative to green tea extract",over 70%
same,"slow antioxidant activity, comparison in words","[1]; 5% (W/V) solution, FIG. 5",more potent as a slow acting antioxidant
same,type of tyrosinase inhibition (Lineweaver Burk diagram),tyrosinase,competitive inhibitor
same,IC50,"tyrosinase; substrate L-DOPA, read-out: concentration for 50% inhibition of tyrosinase activity",200 µM
same,"whole ORAC value, comparison in words","[3]; 5% (W/V) solution in deionized water, vs aloeresin A, green tea and grape seed extracts",much higher whole ORAC value than aloeresin A and the standardized green tea and grape seed extracts
"Cc1c(C)c2c(c(C)c1O)CC[C@@](C)(CCC[C@H](C)CCC[C@H](C)CCCC(C)C)O2 [α-tocopherol, reference compound]",inhibition of lipid peroxidation,[4],below 10%

# Source: patent US8110555B2, “7-hydroxy chromones as potent antioxidants” (Unigen, Inc., priority 2002, dated 2012)
